Holding throughout (assay type): functional
In test [1] the test system is SK-OV-3. Description: Cytotoxicity against human SKOV3 cells assessed as cellular growth at 10 uM by SRB assay. On the technique in general: In SRB staining, fixed cells bind dye roughly in proportion to their protein.
The test system of test [2] is OVCAR-4. Description: Cytotoxicity against human OVCAR4 cells assessed as cellular growth at 10 uM by SRB assay.
The test system of test [3] is SK-MEL-28. Description: Cytotoxicity against human SK-MEL-28 cells assessed as cellular growth at 10 uM by SRB assay.
The test system of test [4] is SNB-75. Description: Cytotoxicity against human SNB75 cells assessed as cellular growth at 10 uM by SRB assay.
In test [5] the test system is IGROV-1. In words: Cytotoxicity against human IGROV1 cells assessed as cellular growth at 10 uM by SRB assay.
Test [6] has as its system HCT-116. Description: Cytotoxicity against human HCT116 cells assessed as cellular growth at 10 uM by SRB assay.
In test [7] the test system is EKVX. Description: Cytotoxicity against human EKVX cells assessed as cellular growth at 10 uM by SRB assay.
Test [8] relates to OVCAR-5. In words: Cytotoxicity against human OVCAR5 cells assessed as cellular growth at 10 uM by SRB assay.
Test [9] deals with NCI-H226. Description: Cytotoxicity against human NCI-H226 cells assessed as cellular growth at 10 uM by SRB assay.
Test [10] deals with A498. Description: Cytotoxicity against human A498 cells assessed as cellular growth at 10 uM by SRB assay.
Test [11] deals with UO-31. In words: Cytotoxicity against human UO31 cells assessed as cellular growth at 10 uM by SRB assay.
Test [12] concerns Malme-3M. Description: Cytotoxicity against human MALME-3M cells assessed as cellular growth at 10 uM by SRB assay.
For test [13], the system named is T47D. Description: Cytotoxicity against human T47D cells assessed as cellular growth at 10 uM by SRB assay.
Test [14] relates to NCI-H322M. In words: Cytotoxicity against human NCI-H322M cells assessed as cellular growth at 10 uM by SRB assay.
Test [15] relates to SR. In words: Cytotoxicity against human SR cells assessed as cellular growth at 10 uM by SRB assay.
The test system of test [16] is COLO 205. In words: Cytotoxicity against human COLO205 cells assessed as cellular growth at 10 uM by SRB assay.
For test [17], the system named is HCT-15. In words: Cytotoxicity against human HCT15 cells assessed as cellular growth at 10 uM by SRB assay.
The test system of test [18] is LOX IMVI. In words: Cytotoxicity against human LOXIMVI cells assessed as cellular growth at 10 uM by SRB assay.
Test [19] concerns SK-MEL-5. Description: Cytotoxicity against human SK-MEL-5 cells assessed as cellular growth at 10 uM by SRB assay.

For `Cc1ccc(C(=O)/C=C2/Nc3ccc(C)cc3OC2=O)cc1`, the Activity in [1] stood at 115.37%; in test [2], 96.74%; in test [3], 118.66%; in test [4], 72.48%; in [5], 115.36%; in [6] it was 110.04%. Besides, the Activity in test [7] is listed as 92.88%; in test [8], 120.4%; in test [9] it was 108.24%; in [10], 86.34%; in [11], 94.47%; in [12], 114.26%. The Activity in [13] is 104.44%; in test [14], 106.47%; in test [15], 100.89%; in [16], 120.49%; in [17] it was 110.94%; in [18], 104.53%. The Activity in test [19] is reported as 100.21%.

On to `Cc1ccc2c(c1)N/C(=C/C(=O)c1ccc(Cl)cc1)C(=O)O2`, for which the Activity in test [1] came to 110.03%; in test [2], 88.88%; in test [3], 116.13%; in [4] it was 86.32%; in [5], 136.06%; in [6], 105.71%. In addition, the Activity was 106.62% in test [7]; 106.86% in test [8]; 105.28% in [9]; 94.15% in [11]; 99.95% in test [12]; 106.85% in test [13]. Also, the Activity stood at 114.58% in test [14]; 110.86% in [15]; 118.18% in [16]; 99.12% in test [17]; 100.45% in [18]; 102.04% in [19].

For the molecule `Cc1ccc(C2=N/C(=C\c3ccccc3)C(=O)O2)cc1`, the Activity is listed as 109.52% in [1]; 108.84% in [2]; 105.81% in test [3]; 90.22% in [4]; 114.29% in test [6]; 90.26% in test [7]. For the same molecule, the Activity in test [8] is listed as 95.31%; in test [9] it was 102%; in test [11], 102.89%; in [12], 105.62%; in [13], 105.06%; in [14] it was 114.1%. In addition, the Activity in [15] is 88.58%; in test [16], 122.06%; in test [17], 100.23%; in test [18], 105.76%; in [19], 105.32%.

In the case of `O=C(NCc1ccc(Cl)cc1)c1[nH]c2ccccc2c1Cl`, the Activity in [1] is given as 98.27%; in test [2], 100.82%; in [3], 109.03%; in test [4] it was 94.33%; in test [5], 106.79%; in test [6] it was 103.25%. The Activity was 83.18% in test [7]; 116.56% in test [8]; 89.64% in test [9]; 76.55% in [10]; 80.6% in test [11]; 98.93% in test [12]. The Activity is on record as 96.29% in test [13]; 113.2% in [14]; 104.86% in test [16]; 103.64% in [17]; 95.45% in [18]; 95.97% in [19].

With `Clc1ccc(-c2nc(-c3cccs3)no2)cc1`, the Activity in [1] came to 106.04%; in test [2], 65.77%; in test [3], 115.07%; in test [4], 81.53%; in test [6] it was 92.37%; in [7] it was 85.36%. Further, the Activity is recorded as 108.26% in [8]; 100.24% in test [9]; 93.08% in test [10]; 74.13% in test [11]; 66.67% in test [13]; 113.5% in test [14]. Moreover, the Activity in [15] is given as 85.71%; in test [16] it was 113.89%; in test [17] it was 47.45%; in test [18] it was 93.13%; in test [19], 90.07%.

On to `O=C(Nc1nc2ccc(Cl)cc2s1)c1ccc(Cl)cc1`, for which the Activity in test [1] stood at 89.31%; in test [2], 100.6%; in test [3], 109.14%; in test [4], 100.74%; in [5] it was 119.2%; in [6] it was 98.42%. Also, the Activity was found to be 94% in [7]; 115.32% in test [8]; 84.73% in test [9]; 94.69% in test [10]; 97.6% in test [11]; 110.45% in test [12]. Also, the Activity amounted to 93.28% in test [13]; 111.02% in [14]; 94.31% in [15]; 105.29% in test [16]; 98.99% in test [17]; 98.77% in test [18]. Further, the Activity in [19] worked out at 94.67%.

Take `O=C(Nc1ccc2oc(=O)ccc2c1)c1ccc(-c2ccc(Cl)c(Cl)c2)o1`: the Activity is recorded as 107.01% in test [1]; 91.52% in [2]; 101.23% in test [3]; 92.21% in test [4]; 106.69% in [5]; 57.64% in test [6]. Also, the Activity in test [7] came to 94.26%; in test [8], 99.5%; in test [9], 92.4%; in test [10] it was 101.16%; in test [11] it was 65.88%; in test [12] it was 100.19%. Moreover, the Activity in [13] is reported as 81.58%; in test [14], 91.94%; in test [15], 89.98%; in test [16], 121.29%; in test [17], 72.06%; in test [18] it was 47.73%. For the same molecule, the Activity in [19] was found to be 87.91%.

Take `Cc1ccccc1NC(=O)c1sc2nc3c(cc2c1N)C(=O)CCC3`: the Activity in test [1] stood at 22.08%; in test [2], 67.57%; in test [3], 52.79%; in [4], 13.12%; in test [5] it was 77.05%; in test [6], 34.55%. Also, the Activity in test [7] was 87.53%; in test [8], 80.78%; in [9], 65.79%; in test [10], 31.28%; in test [11], 77.51%; in [12], 66.45%. Besides, the Activity is given as 43.92% in test [13]; 71.39% in test [14]; 34.35% in test [15]; 6.12% in test [16]; 32.76% in test [17]; 47.43% in test [18]. The Activity in test [19] stood at 18.64%.

With `Cc1ccc(S(=O)(=O)NC2=NC(=O)/C(=C\c3ccccc3)S2)cc1`, the Activity was 107.71% in test [1]; 96.34% in test [2]; 114.12% in test [3]; 88.62% in test [4]; 124.8% in [5]; 111.6% in test [6]. Further, the Activity in test [7] is 99.77%; in test [8], 111.88%; in test [9], 108.84%; in [10], 11.33%; in test [11], 90.79%; in test [12], 112.01%. The Activity in test [13] is given as 100.5%; in test [14], 114.86%; in [15], 95.9%; in test [17], 104.84%; in [18] it was 99.09%; in test [19], 100.29%.

On to `O=S(=O)(Oc1ccc(-c2cnc3ccccc3n2)cc1)c1ccccc1`, for which the Activity is recorded as 106.76% in [1]; 96.73% in [2]; 110.13% in test [3]; 108.13% in test [4]; 130.45% in test [5]; 94.15% in test [6]. Further, the Activity turned out to be 93.17% in test [7]; 101.99% in test [8]; 94.97% in [9]; 60.82% in test [10]; 94.43% in test [11]; 92.27% in test [12]. The Activity in [13] was determined as 86.45%; in test [14], 107.81%; in [15], 85.09%; in [17], 98.25%; in test [18] it was 95.98%; in test [19], 92.11%.

Regarding `Nc1c(C(=O)Nc2cccc(Cl)c2)sc2nc3c(cc12)C(=O)CCC3`, the Activity in test [1] is 35.17%; in test [2] it was 60.44%; in test [3], 51.4%; in test [4], 25.91%; in [5], 52.39%; in test [6], 27.38%. The Activity in test [7] amounted to 58.16%; in [8], 58.33%; in [9], 57.93%; in [10], 49.32%; in test [11] it was 57.11%; in [12] it was 49.7%. The Activity is 52.94% in test [13]; 71.82% in test [14]; 39.11% in test [15]; 10.22% in test [16]; 32.41% in test [17]; 46.08% in test [18]. The Activity in [19] is 27.21%.

For `O=C(Nc1ccc(S(=O)(=O)Nc2nccs2)cc1)c1cccs1`, the Activity is 117.21% in test [1]; 103.47% in [2]; 115.4% in test [3]; 87.94% in test [4]; 120.24% in test [5]; 108.46% in test [6]. Also, the Activity in [7] is 97.85%; in [8], 112.09%; in test [9], 108.77%; in test [10] it was 114.15%; in test [11] it was 95.49%; in test [12] it was 104.82%. The Activity in test [13] stood at 105.19%; in test [14] it was 104.64%; in [15], 101.57%; in test [16], 135.23%; in [17], 104.67%; in test [18], 110.65%. The Activity in [19] is 107.39%.
